Source: PubChem BioAssay (NCI)
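Interpolation was linear, between the two tested concentrations surrounding the appropriate level; five concentrations were tested over 48 hours in 96-well plates. GI50 is the concentration that inhibits growth by half. TGI marks complete inhibition of growth.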

Tests used:
Assay in all cases: inhibition of tumour cell growth, NCI panel, 48 h
COLO 205 colon = system: COLO 205 colon
NCI-H460 lung = system: NCI-H460 lung
NCI-H23 lung = system: NCI-H23 lung
NCI-H226 lung = system: NCI-H226 lung
HCT-116 colon = system: HCT-116 colon
HOP-62 NSCLC = system: HOP-62 NSCLC
RPMI-8226 leukemia = system: RPMI-8226 leukemia
KM12 colon = system: KM12 colon
786-0 renal = system: 786-0 renal
SF-268 CNS = system: SF-268 CNS
BT-549 breast = system: BT-549 breast
M14 melanoma = system: M14 melanoma
SK-MEL-28 melanoma = system: SK-MEL-28 melanoma
MCF7 breast = system: MCF7 breast
SF-295 CNS = system: SF-295 CNS
OVCAR-4 ovarian = system: OVCAR-4 ovarian
U251 CNS = system: U251 CNS
MDA-MB-231 breast = system: MDA-MB-231 breast
CAKI-1 renal = system: CAKI-1 renal
MALME-3M melanoma = system: MALME-3M melanoma
HOP-92 NSCLC = system: HOP-92 NSCLC
HS 578T breast = system: HS 578T breast
SK-MEL-2 melanoma = system: SK-MEL-2 melanoma
SK-OV-3 ovarian = system: SK-OV-3 ovarian
PC-3 prostate = system: PC-3 prostate
SR leukemia = system: SR leukemia
OVCAR-3 ovarian = system: OVCAR-3 ovarian
DU-145 prostate = system: DU-145 prostate
NCI/ADR-RES ovarian = system: NCI/ADR-RES ovarian
UACC-257 melanoma = system: UACC-257 melanoma
TK-10 renal = system: TK-10 renal
LOX IMVI melanoma = system: LOX IMVI melanoma
T-47D breast = system: T-47D breast
A549 NSCLC = system: A549 NSCLC
RXF 393 renal = system: RXF 393 renal
SN12C renal = system: SN12C renal
SNB-75 CNS = system: SNB-75 CNS
MDA-MB-435 = system: MDA-MB-435
MOLT-4 leukemia = system: MOLT-4 leukemia
IGROV1 ovarian = system: IGROV1 ovarian
OVCAR-8 ovarian = system: OVCAR-8 ovarian
ACHN renal = system: ACHN renal
SF-539 CNS = system: SF-539 CNS
OVCAR-5 ovarian = system: OVCAR-5 ovarian
SK-MEL-5 melanoma = system: SK-MEL-5 melanoma
SNB-19 CNS = system: SNB-19 CNS
K-562 leukemia = system: K-562 leukemia
UACC-62 melanoma = system: UACC-62 melanoma
HCC-2998 colon = system: HCC-2998 colon
HCT-15 colon = system: HCT-15 colon
NCI-H522 lung = system: NCI-H522 lung
UO-31 renal = system: UO-31 renal
A498 renal = system: A498 renal

CCC[CH2][Sn]1([CH2]CCC)[O]C2C(CO)OC(n3ccc(N)nc3=O)C2[O]1 (stereo unspecified)
GI50 (COLO 205 colon): 1480 nM
TGI (COLO 205 colon): 3150 nM
GI50 (NCI-H460 lung): 1790 nM
TGI (NCI-H460 lung): 3600 nM
GI50 (NCI-H23 lung): 1350 nM
TGI (NCI-H23 lung): 3080 nM
GI50 (NCI-H226 lung): 2020 nM
TGI (NCI-H226 lung): 4250 nM
GI50 (HCT-116 colon): 1440 nM
TGI (HCT-116 colon): 2790 nM
GI50 (HOP-62 NSCLC): 2240 nM
TGI (HOP-62 NSCLC): 3990 nM
GI50 (RPMI-8226 leukemia): 290 nM
TGI (RPMI-8226 leukemia): 2020 nM
GI50 (KM12 colon): 1680 nM
TGI (KM12 colon): 3130 nM
GI50 (786-0 renal): 1540 nM
TGI (786-0 renal): 2880 nM
GI50 (SF-268 CNS): 1080 nM
TGI (SF-268 CNS): 2470 nM
GI50 (BT-549 breast): 1420 nM
TGI (BT-549 breast): 2730 nM
GI50 (M14 melanoma): 1550 nM
TGI (M14 melanoma): 3090 nM
GI50 (SK-MEL-28 melanoma): 1290 nM
TGI (SK-MEL-28 melanoma): 2660 nM
GI50 (MCF7 breast): 300 nM
TGI (MCF7 breast): 1420 nM
GI50 (SF-295 CNS): 1930 nM
TGI (SF-295 CNS): 3720 nM
GI50 (OVCAR-4 ovarian): 1330 nM
TGI (OVCAR-4 ovarian): 2680 nM
GI50 (U251 CNS): 1520 nM
TGI (U251 CNS): 2870 nM
GI50 (MDA-MB-231 breast): 818 nM
TGI (MDA-MB-231 breast): 2190 nM
GI50 (CAKI-1 renal): 1190 nM
TGI (CAKI-1 renal): 2530 nM
GI50 (MALME-3M melanoma): 701 nM
TGI (MALME-3M melanoma): 2150 nM
GI50 (HOP-92 NSCLC): 361 nM
TGI (HOP-92 NSCLC): 1980 nM
GI50 (HS 578T breast): 1290 nM
TGI (HS 578T breast): 4140 nM
GI50 (SK-MEL-2 melanoma): 964 nM
TGI (SK-MEL-2 melanoma): 2290 nM
GI50 (SK-OV-3 ovarian): 1820 nM
TGI (SK-OV-3 ovarian): 3380 nM
GI50 (PC-3 prostate): 1660 nM
TGI (PC-3 prostate): 3260 nM
GI50 (SR leukemia): 549 nM
TGI (SR leukemia): > 100000 nM
GI50 (OVCAR-3 ovarian): 1580 nM
TGI (OVCAR-3 ovarian): 2940 nM
GI50 (DU-145 prostate): 1340 nM
TGI (DU-145 prostate): 2610 nM
GI50 (NCI/ADR-RES ovarian): 2010 nM
TGI (NCI/ADR-RES ovarian): 4370 nM
GI50 (UACC-257 melanoma): 1280 nM
TGI (UACC-257 melanoma): 2610 nM
GI50 (TK-10 renal): 1150 nM
TGI (TK-10 renal): 2380 nM
GI50 (LOX IMVI melanoma): 384 nM
TGI (LOX IMVI melanoma): 1650 nM
GI50 (T-47D breast): 383 nM
TGI (T-47D breast): 2490 nM
GI50 (A549 NSCLC): 2380 nM
TGI (A549 NSCLC): 4730 nM
GI50 (RXF 393 renal): 1220 nM
TGI (RXF 393 renal): 2480 nM
GI50 (SN12C renal): 1450 nM
TGI (SN12C renal): 2830 nM
GI50 (SNB-75 CNS): 1050 nM
TGI (SNB-75 CNS): 2280 nM
GI50 (MDA-MB-435): 1410 nM
TGI (MDA-MB-435): 2880 nM
GI50 (MOLT-4 leukemia): 1640 nM
TGI (MOLT-4 leukemia): > 100000 nM
GI50 (IGROV1 ovarian): 1020 nM
TGI (IGROV1 ovarian): 2780 nM
GI50 (OVCAR-8 ovarian): 1660 nM
TGI (OVCAR-8 ovarian): 3110 nM
GI50 (ACHN renal): 1350 nM
TGI (ACHN renal): 2670 nM
GI50 (SF-539 CNS): 1410 nM
TGI (SF-539 CNS): 2720 nM
GI50 (OVCAR-5 ovarian): 1570 nM
TGI (OVCAR-5 ovarian): 3030 nM
GI50 (SK-MEL-5 melanoma): 1610 nM
TGI (SK-MEL-5 melanoma): 2990 nM
GI50 (SNB-19 CNS): 1550 nM
TGI (SNB-19 CNS): 2930 nM
GI50 (K-562 leukemia): 297 nM
TGI (K-562 leukemia): > 100000 nM
GI50 (UACC-62 melanoma): 1120 nM
TGI (UACC-62 melanoma): 2410 nM
GI50 (HCC-2998 colon): 1660 nM
TGI (HCC-2998 colon): 3200 nM
GI50 (HCT-15 colon): 1270 nM
TGI (HCT-15 colon): 2700 nM
GI50 (NCI-H522 lung): 186 nM
TGI (NCI-H522 lung): 424 nM
GI50 (UO-31 renal): 1160 nM
TGI (UO-31 renal): 2430 nM
GI50 (A498 renal): 271 nM
TGI (A498 renal): 1170 nM
